The text below walks through data of article PMC12508057, “Discovery of ETI41 and ETI60: novel selective endosomal Toll-like receptor inhibitors for the treatment of autoimmune diseases” (Experimental & Molecular Medicine, 2025).

Molecules are shown by their SMILES. Like-named read-outs stand apart in the source and are kept apart here.

For one assay, the target named is T1, human TLR7 (Homo sapiens, UniProt Q9NYK1).
T1 construct: Fc; purchased R&D Systems
T1 sequence (Q9NYK1 27-839 limits assumed): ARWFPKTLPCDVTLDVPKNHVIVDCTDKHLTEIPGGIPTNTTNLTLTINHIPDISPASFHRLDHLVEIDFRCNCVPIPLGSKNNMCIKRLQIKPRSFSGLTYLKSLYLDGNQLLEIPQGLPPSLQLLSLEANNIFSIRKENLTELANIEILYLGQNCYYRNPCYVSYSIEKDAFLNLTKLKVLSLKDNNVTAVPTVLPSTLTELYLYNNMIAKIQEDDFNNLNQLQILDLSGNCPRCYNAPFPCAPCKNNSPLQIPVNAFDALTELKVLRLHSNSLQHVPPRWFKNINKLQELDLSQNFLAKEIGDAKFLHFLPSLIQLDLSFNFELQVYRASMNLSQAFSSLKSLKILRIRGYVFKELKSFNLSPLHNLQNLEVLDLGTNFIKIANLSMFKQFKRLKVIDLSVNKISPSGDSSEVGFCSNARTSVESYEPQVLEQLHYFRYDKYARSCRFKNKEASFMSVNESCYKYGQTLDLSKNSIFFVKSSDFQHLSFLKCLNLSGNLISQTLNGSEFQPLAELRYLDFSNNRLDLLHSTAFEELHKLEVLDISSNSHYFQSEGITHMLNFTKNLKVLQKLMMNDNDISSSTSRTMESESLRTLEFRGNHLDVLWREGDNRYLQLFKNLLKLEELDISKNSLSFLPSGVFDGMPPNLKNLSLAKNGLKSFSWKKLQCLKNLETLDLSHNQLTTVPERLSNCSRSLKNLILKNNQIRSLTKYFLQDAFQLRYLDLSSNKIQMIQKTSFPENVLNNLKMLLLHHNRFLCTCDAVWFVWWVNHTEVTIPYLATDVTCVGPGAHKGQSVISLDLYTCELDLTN
Nature of the assay: SPR binding to TLR7. The conditions noted are these: for SPR binding to TLR7: neutral pH 7.4 (early endosome). As for the experimental part:
Surface plasmon resonance (SPR) analysis was conducted using an SR7500DC SPR System (Reichert) with a CMDH chip for human TLR7 and murine TLR9 (R&D Systems) and a Biacore T200 platform (Cytiva) with a CM5 chip for TLR9–ODN binding. The running buffer contained 0.5% DMSO and phosphate-buffered saline, and 50 mM NaOH was used for regeneration. ETI series compounds were serially diluted from 500 μM and tested for binding affinity. Binding curves were analyzed using Scrubber2 and Biacore T200 evaluation softwares. The dissociation constants (KD) were calculated as KD = kd/ka.
SPR confirmed the binding mechanisms of ETI41 and ETI60 with TLR7 and TLR9, respectively, under three conditions: (a) early endosome (pH 7.4), (b) late endosome without CpG (pH 5.5) and (c) late endosome with CpG (pH 5.5). (a) Both ETI41 and ETI60 were measured for parameters indicating binding affinity, including the KD value presented in Table 3, and were further analyzed under conditions (b) and (c), depending on the presence or absence of ligand, to explain the binding mechanism occurring in TLR9.

For a further assay, the system named is TLR2/TLR6. Description: Surface TLR specificity, TNF-α secretion in differentiated THP-1. It is filed as cell-based, human. The conditions noted are these: 2 and 5 μM, differentiated THP-1, Pam3CSK4. As for the experimental part:
(§1) RAW 264.7 and differentiated THP-1 cells were seeded into 96-well plates at 2 × 10^4 cells per well, while Daudi cells were seeded at 5 × 10^4 cells per well. After stabilization for 30 min, cells were stimulated with specific TLR agonists for 4 or 24 h. Supernatants were diluted and transferred to precoated ELISA plates to measure TNF-α secretion using kits from Invitrogen. Optical absorbance was measured using a BioTek Synergy HTX multimode microplate reader, and data were interpolated using BioTek Gen5 software.
(§2) The cells were activated with agonistic ligands: […], TLR3 (poly I:C, 2 μg/ml, 24 h), TLR4 (LPS, 10 or 100 ng/ml, 4 h), TLR5 (FLA-ST, 500 ng/ml, 4 h), TLR7 (ORN06/LyoVec, 2 μg/ml, 24 h; and IMQ, 1 μg/ml, 4 h), TLR8 (TL8-506, 2 μg/ml, 24 h) and TLR9 (ODN2395, 1 μM, 4 h) at various concentrations in RAW 264.7 cells, human Daudi cells and THP-1 cells. Data are from at least three independent experiments (n = 3) and statistical differences between the induced case and other cases were analyzed and verified using a one-tailed Student’s t-test (*P < 0.05, **P < 0.01, ***P < 0.001).
(§3) Given the structural similarities among TLR family proteins, achieving high selectivity is challenging. We tested the effects of ETI41 and ETI60 on various surface TLRs to determine their specificity. […] TLRs activate transcription factors, including NF-κB, MAPKs, c-Jun N-terminal kinase (JNK), extracellular signal-regulated kinase (ERK) and IRF7, which regulate cellular functions such as proliferation and apoptosis. Western blot analysis confirmed that ETI41 and ETI60 inhibited IMQ- or ODN2395-induced phosphorylation of MAPKs (p-ERK, p-JNK and p-p38), nuclear translocation of the NF-κB p65 subunit, Iκ-Bα degradation and IRF7 expression in RAW 264.7 cells (Fig. 2a–c and Supplementary Figs. 2 and 3).

The test system of another assay is TLR1/TLR2. The assay is described as above. It is filed as cell-based, human. The conditions noted are these: 2 and 5 μM, differentiated THP-1, FSL-1. As for the experimental part:
as §1, §2, §3

On to `Cc1cc2c(N)c3c(nc2n1CCCN(C)C)CCCCCC3` [ETI41], for which, on human TLR7, binding was characterised by a dissociation constant (Kd) of 0.54 mM and the “SPR binding to TLR7” value is given as “clear binding affinity”. Moreover, at human TLR7 (Fc-TLR7, pH 7.4), the kd is 0.21 s⁻¹. For the same compound, on human TLR7 (pH 7.4, read-out: ka), the kon was found to be 400 M⁻¹ s⁻¹. Moreover, the “Inhibition of TLR2/TLR6 (TNF-α secretion)” value in the assay on TLR2/TLR6 is on record as “neither compound inhibited”. Also, in the assay with TLR1/TLR2, the “Inhibition of TLR1/TLR2 (TNF-α secretion)” value is “neither compound inhibited”.

The compound `COc1ccc2c3c(N)c4c(nc3n(CCCN(C)C)c2c1)CCCC4` [ETI60] yielded a kd at human TLR7 (Fc-TLR7, pH 7.4) of 0.124 s⁻¹. Further, the Kd on human TLR7 (Fc-TLR7, pH 7.4, read-out: KD) is 6 mM. The kon at human TLR7 (Fc-TLR7, pH 7.4, read-out: ka) came to 20 M⁻¹ s⁻¹. In addition, the “SPR binding to TLR7” value on human TLR7 is given as “clear binding affinity”. In addition, the “Inhibition of TLR2/TLR6 (TNF-α secretion)” value in the assay on TLR2/TLR6 is on record as “neither compound inhibited”. In the assay with TLR1/TLR2, the “Inhibition of TLR1/TLR2 (TNF-α secretion)” value was “neither compound inhibited”.
